From patent US11285156B2, “Substituted piperazines as KRAS G12C inhibitors” (Amgen Inc., priority 2018, dated 2022) come the findings set out here.

The target in assay [1] is GDP-bound KRAS protein (aa 1-169), containing both G12C and C118A amino acid substitutions (Homo sapiens (Human), UniProt P01116, C118A/G12C). Nature of the assay: Coupled nucleotide exchange assay (SOS-mediated nucleotide exchange, AlphaScreen). The assay is classed as biochemical. The following applies: read-out: Coupled exchange IC50 (5 min; μM); 5 min compound pre-incubation.

In assay [2] the test system is Phosphorylation of ERK1/2 in MIA PaCa-2 cells. Nature of the assay: Phospho-ERK1/2 MSD assay in MIA PaCa-2 cells. The following applies: Homo sapiens, MIA PaCa-2, 2 h, read-out: p-ERK IC50 (2 h, MiaPaCa-2; μM), 2 h compound treatment, MIA PaCa-2 cells, EGF stimulated. The assay is classed as cell-based. The procedure, abridged:
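Phospho-ERK1/2 measured by MSD electrochemiluminescence kit in RIPA lysates of MIA PaCa-2 cells. Cells were treated with compound titrations for 2 or 4 h at 37 °C, 5% CO2, followed by a 10 min pulse of 10 ng/mL EGF.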

The test system of assay [3] is Phosphorylation of ERK1/2 in A549 cells. Nature of the assay: Phospho-ERK1/2 MSD assay in A549 cells. The following applies: Homo sapiens, A549, 2 h, read-out: p-ERK IC50 (2 h, A549; μM), 2 h compound treatment, A549 cells, EGF stimulated. The assay is classed as cell-based. In a few lines:
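Dose-response treatment lasted 2 or 4 h in RPMI 1640/10% FBS at 37 °C. EGF-stimulated (10 ng/mL, 10 min) ERK1/2 phosphorylation was then quantified in cell lysates with a Meso Scale Discovery phospho-ERK1/2 assay.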

SMILES strings stand for the structures.

Chain of GDP-bound KRAS protein (aa 1-169), containing both G12C and C118A amino acid substitutions (P01116 other isoform, or with tags, fused parts or gaps G12C/C118A): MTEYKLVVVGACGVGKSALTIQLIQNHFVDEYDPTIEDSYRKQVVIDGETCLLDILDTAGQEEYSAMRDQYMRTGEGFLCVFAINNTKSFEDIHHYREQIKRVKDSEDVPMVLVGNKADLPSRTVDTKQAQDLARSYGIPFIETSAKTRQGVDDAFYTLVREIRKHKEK

What is called IC50 is the concentration needed to halve the response being measured. Turning to `C=CC(=O)N1C[C@H](C)N(c2nc(=O)n(-c3c(C)ccnc3C(C)C)c3nc(-c4ccccc4NS(C)(=O)=O)c(Cl)cc23)C[C@H]1C` (atropisomer, axis not shown; (M)) [Example 92-32, (M)-N-[2-[6-Chloro-4-[(2S,5R)-2,5-dimethyl-4-prop-2-enoyl-piperazin-1-yl]-1-(2-isopropyl-4-methyl-3-pyridyl)-2-oxo-pyrido[2,3-d]pyrimidin-7-yl]phenyl] methanesul-fonamide], the IC50 in assay [1] is 0.075 µM; in assay [2], 0.129 µM; in assay [3], > 7.5 µM.

On to `C=CC(=O)N1C[C@H](C)N(c2nc(=O)n(-c3c(C)ccnc3C(C)C)c3nc(-c4ccccc4S(N)(=O)=O)c(Cl)cc23)C[C@H]1C` (atropisomer, axis not shown; (M)) [Example 92-33, (M)-2-[6-Chloro-4-[(2S,5R)-2,5-dimethyl-4-prop-2-enoyl-piperazin-1-yl]-1-(2-isopropyl-4-methyl-3-pyridyl)-2-oxo-pyrido[2,3-d]pyrimidin-7-yl] benzenesul-fonamide], for which the results for the IC50 in assay [1], in assay [2] and in assay [3] were 0.113 µM, 0.216 µM and > 7.5 µM, respectively.

As to `C=CC(=O)N1C[C@H](C)N(c2nc(=O)n(-c3c(C)ccnc3C(C)C)c3nc(-c4cc(O)ccc4F)c(Cl)cc23)C[C@H]1C` (atropisomer, axis not shown; (M)) [Example 92-34, (M)-6-Chloro-4-[(2S,5R)-2,5-dimethyl-4-prop-2-enoyl-piperazin-1-yl]-7-(2-fluoro-5-hydroxy-phenyl)-1-(2-isopropyl-4-methyl-3-pyridyl)pyrido [2,3-d]pyrimidin-2-one], the IC50 was 0.054 µM in assay [1], 0.06 µM in assay [2] and > 7.5 µM in assay [3].

Take `C=CC(=O)N1C[C@H](C)N(c2nc(=O)n(-c3c(C)ccnc3C(C)C)c3nc(-c4ccccc4[N+](=O)[O-])c(Cl)cc23)C[C@H]1C` (atropisomer, axis not shown; (M)) [Example 92-36, (M)-6-Chloro-4-[(2S,5R)-2,5-dimethyl-4-prop-2-enoyl-piperazin-1-yl]-1-(2-isopropyl-4-methyl-3-pyridyl)-7-(2-nitrophenyl) pyrido[2,3-d]pyrimidin-2-one]: the IC50 was determined as 0.275 µM in assay [1], 0.133 µM in assay [2] and 1.87 µM in assay [3].

On to `C=CC(=O)N1C[C@H](C)N(c2nc(=O)n(-c3c(C)ccnc3C(C)C)c3nc(-c4cc(Br)ccc4F)c(Cl)cc23)C[C@H]1C` (atropisomer, axis not shown; (M)) [Example 92-37, (M)-7-(5-Bromo-2-fluoro-phenyl)-6-chloro-4-[(2S,5R)-2,5-dimethyl-4-prop-2-enoyl-piperazin-1-yl]-1-(2-isopropyl-4-methyl-3-pyridyl)pyrido [2,3-d]pyrimidin-2-one], for which the half-inhibitory concentration (IC50) was 0.048 µM in assay [1], 0.06 µM in assay [2] and > 7.5 µM in assay [3].

With `C=CC(=O)N1C[C@H](C)N(c2nc(=O)n(-c3c(C)ccnc3C(C)C)c3nc(-c4cc(C#CC)ccc4F)c(Cl)cc23)C[C@H]1C` (atropisomer, axis not shown; (M)) [Example 92-39, (M)-6-Chloro-4-[(2S,5R)-2,5-dimethyl-4-prop-2-enoyl-piperazin-1-yl]-7-(2-fluoro-5-prop-1-ynyl-phenyl)-1-(2-isopropyl-4-methyl-3-pyridyl)pyrido [2,3-d]pyrimidin-2-one], the IC50 in assay [1] is 0.032 µM; in assay [2], 0.145 µM; in assay [3] it was > 7.5 µM.

In the case of `C=CC(=O)N1C[C@H](C)N(c2nc(=O)n(-c3c(C)ccnc3C(C)C)c3nc(-c4c(F)cccc4C#N)c(Cl)cc23)C[C@H]1C` (atropisomer, axis not shown; (M)) [Example 92-40, (M)-2-[6-Chloro-4-[(2S,5R)-2,5-dimethyl-4-prop-2-enoyl-piperazin-1-yl]-1-(2-isopropyl-4-methyl-3-pyridyl)-2-oxo-pyrido[2,3-d]pyrimidin-7-yl]-3-fluoro-benzonitrile], the IC50 in assay [1] was 0.244 µM; in assay [2], 0.14 µM; in assay [3] it was > 7.5 µM.

For the molecule `C=CC(=O)N1C[C@H](C)N(c2nc(=O)n(-c3c(C)ccnc3C(C)C)c3nc(-c4ccccc4C(C)=O)c(Cl)cc23)C[C@H]1C` (atropisomer, axis not shown; (M)) [Example 92-41, (M)-7-(2-Acetylphenyl)-6-chloro-4-[(2S,5R)-2,5-dimethyl-4-prop-2-enoyl-piperazin-1-yl]-1-(2-isopropyl-4-methyl-3-pyridyl)pyrido [2,3-d]pyrimidin-2-one], the 50% inhibitory concentration (IC50) in assay [1] is 0.117 µM; in assay [2], 0.075 µM; in assay [3], 3.75 µM.

Consider `C=CC(=O)N1C[C@H](C)N(c2nc(=O)n(-c3c(C)ccnc3C(C)C)c3nc(-c4ccccc4)c(Cl)cc23)C[C@H]1C` (atropisomer, axis not shown; (M)) [Example 92-42, (M)-6-Chloro-4-[(2S,5R)-2,5-dimethyl-4-prop-2-enoyl-piperazin-1-yl]-1-(2-isopropyl-4-methyl-3-pyridyl)-7-phenyl-pyrido[2,3-d]pyrimidin-2-one], for which the half-maximal inhibitory concentration (IC50) in assay [1] is 0.117 µM; in assay [2], 0.08 µM; in assay [3], > 7.5 µM.

For the molecule `C=CC(=O)N1C[C@H](C)N(c2nc(=O)n(-c3c(C)ccnc3C(C)C)c3nc(-c4cc(Cl)ccc4F)c(Cl)cc23)C[C@H]1C` (atropisomer, axis not shown; (M)) [Example 92-44, (M)-6-Chloro-7-(5-chloro-2-fluoro-phenyl)-4-[(2S,5R)-2,5-dimethyl-4-prop-2-enoyl-piperazin-1-yl]-1-(2-isopropyl-4-methyl-3-pyridyl)pyrido [2,3-d]pyrimidin-2-one], the values for the IC50 in assay [1], in assay [2] and in assay [3] were 0.04 µM, 0.098 µM and > 7.5 µM, respectively.

With `C=CC(=O)N1C[C@H](C)N(c2nc(=O)n(-c3c(C)ccnc3C(C)C)c3nc(-c4ccccc4C)c(Cl)cc23)C[C@H]1C` (atropisomer, axis not shown; (M)) [Example 92-45, (M)-6-Chloro-4-[(2S,5R)-2,5-dimethyl-4-prop-2-enoyl-piperazin-1-yl]-1-(2-isopropyl-4-methyl-3-pyridyl)-7-(o-tolyl)pyrido[2,3-d]pyrimidin-2-one], the IC50 is 0.025 µM in assay [1], 0.023 µM in assay [2] and > 7.5 µM in assay [3].

For the molecule `C=CC(=O)N1C[C@H](C)N(c2nc(=O)n(-c3c(C)ccnc3C(C)C)c3nc(-c4cccc(Cl)c4F)c(Cl)cc23)C[C@H]1C` (atropisomer, axis not shown; (M)) [Example 92-46, (M)-6-Chloro-7-(3-chloro-2-fluoro-phenyl)-4-[(2S,5R)-2,5-dimethyl-4-prop-2-enoyl-piperazin-1-yl]-1-(2-isopropyl-4-methyl-3-pyridyl)pyrido [2,3-d]pyrimidin-2-one], the 50% inhibitory concentration (IC50) in assay [1] was 0.023 µM; in assay [2], 0.032 µM; in assay [3], > 7.5 µM.

Regarding `C#Cc1ccccc1-c1nc2c(cc1Cl)c(N1C[C@@H](C)N(C(=O)C=C)C[C@@H]1C)nc(=O)n2-c1c(C)ccnc1C(C)C` (atropisomer, axis not shown; (M)) [Example 92-47, (M)-6-Chloro-4-[(2S,5R)-2,5-dimethyl-4-prop-2-enoyl-piperazin-1-yl]-7-(2-ethynylphenyl)-1-(2-isopropyl-4-methyl-3-pyridyl)pyrido [2,3-d]pyrimidin-2-one], the IC50 is 0.057 µM in assay [1], 0.049 µM in assay [2] and > 7.5 µM in assay [3].

For `C#Cc1cccc(-c2nc3c(cc2Cl)c(N2C[C@@H](C)N(C(=O)C=C)C[C@@H]2C)nc(=O)n3-c2c(C)ccnc2C(C)C)c1` (atropisomer, axis not shown; (M)) [Example 92-48, (M)-6-Chloro-4-[(2S,5R)-2,5-dimethyl-4-prop-2-enoyl-piperazin-1-yl]-7-(3-ethynylphenyl)-1-(2-isopropyl-4-methyl-3-pyridyl)pyrido [2,3-d]pyrimidin-2-one], the IC50 in assay [1] was 0.247 µM; in assay [2], 0.365 µM; in assay [3], > 7.5 µM.

Take `C=CC(=O)N1C[C@H](C)N(c2nc(=O)n(-c3c(C)ccnc3C(C)C)c3nc(-c4cccc(C#CC)c4)c(Cl)cc23)C[C@H]1C` (atropisomer, axis not shown; (M)) [Example 92-49, (M)-6-Chloro-4-[(2S,5R)-2,5-dimethyl-4-prop-2-enoyl-piperazin-1-yl]-1-(2-isopropyl-4-methyl-3-pyridyl)-7-(3-prop-1-ynylphenyl) pyrido[2,3-d]pyrimidin-2-one]: the half-inhibitory concentration (IC50) in assay [1] was 0.123 µM; in assay [2], 0.328 µM; in assay [3], > 7.5 µM.

Consider `C=CC(=O)N1C[C@H](C)N(c2nc(=O)n(-c3c(C)ccnc3C(C)C)c3nc(-c4ccccc4Cl)c(Cl)cc23)C[C@H]1C` (atropisomer, axis not shown; (M)) [Example 92-51, (M)-6-Chloro-7-(2-chlorophenyl)-4-[(2S,5R)-2,5-dimethyl-4-prop-2-enoyl-piperazin-1-yl]-1-(2-isopropyl-4-methyl-3-pyridyl)pyrido [2,3-d]pyrimidin-2-one], for which the IC50 in assay [1] was 0.033 µM; in assay [2], 0.03 µM; in assay [3], > 7.5 µM.
